Data: patent publication US9901566B1, “Limonoids for treating autoimmune diseases” (Macau University of Science and Technology, priority 2017, dated 2018)
Where “and” joins values, the source holds several entries; their conditions need not be identical. Equal entries are not always repeated. Entries after “also recorded” stand apart in the source; their conditions may differ.

Assays:
ROR-γt protein = experiment: Western blotting of ROR-γt expression in ROR-γt-plasmid transfected HEK293 cells; format: cell-based, human; settings: 24 h
Procedure: The transfection assay is preformed according to the manufacturer's instruction of lipofectamine LTX (invitrogen, USA). In brief, HEK293 cells obtained from the American Type Culture Collection (ATCC, Manassas, Va., USA) were seeded in 1.5 ml of DMEM growth media plus 10% FBS at 5×10^5 cells per well. Five hundred micro liter Opti-MEM Reduced Serum Media containing 1.25 μg of DNA was added to the cells to be transfected, and then 1.25 μl of PLUS was added into the above diluted Opti-MEM:DNA solution, gently mixed and incubated for another 5 min at room temperature. Subsequently, lipofectamine LTX™ Reagent was added into the above solution, mixed gently and then incubated 30 min at room temperature to form DNA-lipofectamine LTX Reagent complexes. Finally, 500 μl of the DNA-lipofectamine LTX Reagent complexes was directly added to each well containing cells and mixed gently. The cells were incubated at 37° C. in a CO2 incubator for another 24 h.
After incubated for 24 h, the transfected HEK293 cells were treated with different concentrations of Amotsangin A, B, C or D for another 24 h. Then the cells were lysed with RIPA buffer containing 1× protease inhibitor mix (Roche, USA) to harvest total cellular proteins, and the protein concentration was calculated by the bicinchoninic acid (BCA) kit (Pierce, Rockford, Ill.). The total cellular proteins were then subjected to electrophoresis in 10% SDS/PAGE and transferred to nitrocellulose membranes. After blocking with 5% non-fat milk in a Tris-buffered saline-0.1% Tween-20 buffer (TBST), the membrane was subsequently incubated with specific primary antibodies (RORγt antibody (eBioscience, San Diego, USA) or β-actin antibody (Santa Cruz, USA)) and HRP-conjugated secondary antibodies. A chemiluminescence (ECL) detection system was used to detect the antibody-bound proteins on the membrane.

Treg differentiation = experiment: Flow cytometry, Treg differentiation of naive CD4+ T cells (Foxp3 production); format: cell-based, C57BL/6 mice; settings: for Foxp3 producing Treg differentiation: Treg-polarizing conditions, 3 days
Procedure: (§1) Naive CD4^+ T cells were sorted by magnetic bead (Miltenyi Biotec) from spleen of C57BL/6 mice (8-14 weeks). CD4^+ T cells (5×10^5 cells/well) were activated with 2 μg/ml of plate-bound anti-mouse CD3 (Biolegend, San Diego, USA), and 5 μg/ml of anti-mouse CD28 (Biolegend) into 24-well-plates. For Th17 differentiation, cells were cultured for 3 days in the presence of 1 ng/ml recombinant human transforming growth factor-β (TGF-β1, Biolegend), 50 ng/ml recombinant mouse interleukin-6 (IL-6, Biolegend), and 5 ng/ml recombinant mouse IL-23 (Biolegend), and 10 μg/ml anti-mouse interleukin-4 (IL-4, Biolegend) with or without the limonoid. For the Th1 differentiation, the cells were cultured for 3 days in the presence of 2 ng/ml recombinant mouse interleukin-2 (IL-2, Biolegend), and 20 μg/ml anti-mouse IL-4 (Biolegend) with or without indicated compounds. For the Th2 differentiation, the cells were cultured for 3 days in the presence of 2 ng/ml recombinant mouse IL-2 (Biolegend), and 20 ng/ml recombinant mouse IL-4 (Biolegend), and 20 μg/ml anti-mouse IFN-γ (Biolegend) with or without compound. For the Treg differentiation, the cells were cultured for 3 days in the presence of 1 ng/ml recombinant human TGF-β1 (Biolegend), and 5 ng/ml recombinant mouse IL-2 (Biolegend) with or without indicated compounds.
(§2) For polarization of Th17, the cells were re-stimulated in complete RPMI 1640 containing 50 ng/ml PMA, 1 μg/ml ionomycin, and 1× Brefeldin A (Biolegend) for 4 h. For polarization of Th1 and Th2, the cells were re-stimulated in complete RPMI 1640 containing 50 ng/ml PMA and 1 μg/ml ionomycin. After 1 h of incubation, 1× Monensin (Biolegend) was added and incubated for 4 h. The cells were collected and washed with Staining Buffer (BD Biosciences, New Jersey, USA), and then stained with PerCP/Cy5.5 anti-mouse CD4 (Biolegend). And then the cells were fixed for 15 min with fixation buffer (BD Biosciences), permeabilized with BD Wash buffer (1×; BD Biosciences), and stained with PE anti-mouse IL-17A (Biolegend), FITC anti-mouse IFN-γ (Biolegend), and APC anti-mouse IL-4 (Biolegend) or APC anti-mouse Foxp3 (eBioscience). The cells were analyzed by BD FACS Aria III, and the acquired data were analyzed using FlowJo software.

[1] = system: ROR-γt luciferase reporter activity; experiment: Lightswitch luciferase reporter assay (ROR Gamma T LUCPorter stable reporter HEK293 cells); format: cell-based; settings: 16 h
Procedure: ROR Gamma T LUCPorter™ Stable Reporter cells and LUCPorter™ Vector Control HEK293 cells (Imgenex) were plated in 96-well plates at 5×10^4 cells/well in triplicate in RPMI 1640 medium with 10% fetal bovine serum, penicillin (100 units/mL), streptomycin (100 μg/mL) and puromycin (3 μg/mL) over night. […] Then the complete mixture of luciferase assay reagent (Biocompare, Texas, USA) has been added to the wells and the mixture has been incubated for 30 min at room temperature in the dark. The mixture has been transferred into a 96 well white plates before reading. Finally, each well was read for 2 seconds in a plate luminometer on a Microplate UV/VIS Spectrophotometer (TECAN, Switzerland). Data are obtained from three independent experiments.

Th1 differentiation = experiment: Flow cytometry, Th1 differentiation of naive CD4+ T cells (IFN-γ production); format: cell-based, C57BL/6 mice; settings: for ratio of the IFN-γ producing Th1 differentiation: Th1-polarizing conditions, 3 days
Procedure: as §1, §2

[2] = system: human peripheral blood mononuclear cells (PBMCs); experiment: Cell viability (MTT) assay of human PBMCs; format: cell-based; settings: concentration of up to 50 μM, 72 h
Procedure: Human peripheral blood mononuclear cells have been isolated from buffy coat. In brief, the buffy coat provided by Macao Blood Transfusion Centre was mixed with normal saline, and then added to 50 mL centrifuge tube containing Ficoll-Pague plus (Amersham Biosciences). The mixture was separated into several layers after centrifuged at 350 g for 35 min. The layer of mononuclear cells has been collected, and then washed twice by normal saline. These cells were be used for the experiments.
Human PBMCs (1×10^5/well) were cultured in 96-well plates in triplicate in RPMI 1640 medium (Gibco, Paisley, UK) with 10% fetal bovine serum (FBS; Gibco), penicillin (100 units/mL) and streptomycin (100 μg/mL), and different concentration of Amotsangin A, B, C and D were added for 72 h. MTT (5 mg/mL) was added to the cells followed by 4 h incubation, followed by addition of solvent (10% sodium dodecyl sulfate (SDS), 50% N, N-dimethyl formamide, pH 7.2) to dissolve the purple precipitate. The absorbance was recorded on a Microplate UV/VIS Spectrophotometer (TECAN, Switzerland) at 570 nm wavelength on the following day. The percentage of cell viability was calculated using the following formula: Cell viability (%)=(ODtreated−ODblank)/(ODcontrol−ODblank)×100.

Th17 differentiation = experiment: Flow cytometry, Th17 differentiation of naive CD4+ T cells (IL-17 production); format: cell-based, C57BL/6 mice; settings: Th17-polarizing conditions; for ratio of the IL-17 production: 3 days; for Th17 cell differentiation (effect in words): up to 25 μM (Amotsangin C up to 10 μM)
Procedure: as §1, §2

Th2 differentiation = experiment: Flow cytometry, Th2 differentiation of naive CD4+ T cells (IL-4 production); format: cell-based, C57BL/6 mice; settings: for ratio of the IL-4 producing Th2 differentiation: Th2-polarizing conditions, 3 days
Procedure: as §1, §2

Structure (SMILES) | expression of ROR-γt protein (ROR-γt protein; 5 to 50 μM) | Treg cell differentiation (effect in words) (Treg differentiation; 25 μM) | ROR-γt luciferase reporter activity ([1]; 5 to 50 μM) | Th1 cell differentiation (effect in words) (Th1 differentiation; 25 μM) | ratio of the IFN-γ producing Th1 differentiation (Th1 differentiation; 25 μM) | cytotoxicity on human PBMCs [2] | ratio of the IL-17 production (Th17 differentiation; 25 μM) [%] | Th17 cell differentiation (effect in words) (Th17 differentiation) | Th2 cell differentiation (effect in words) (Th2 differentiation; 25 μM) | ratio of the IL-4 producing Th2 differentiation (Th2 differentiation; 25 μM) [%] | expression of ROR-γt protein (ROR-γt protein; 1 to 25 μM) | Treg cell differentiation (effect in words) (Treg differentiation; 10 μM) | Foxp3 producing Treg differentiation (Treg differentiation; 10 μM) [%] | ROR-γt luciferase reporter activity ([1]; 1 to 25 μM) | Th1 cell differentiation (effect in words) (Th1 differentiation; 10 μM) | ratio of the IFN-γ producing Th1 differentiation (Th1 differentiation; 10 μM) | ratio of the IL-17 production (Th17 differentiation; 10 μM) [%] | Th2 cell differentiation (effect in words) (Th2 differentiation; 10 μM) | ratio of the IL-4 producing Th2 differentiation (Th2 differentiation; 10 μM) | Foxp3 producing Treg differentiation (Treg differentiation; 25 μM) [%]
C=C1[C@@H]([C@@]2(C)C=CC(=O)OC(C)(C)[C@@H]2CC(=O)OC)[C@@H](OC(C)=O)[C@H](OC(=O)C(C)CC)[C@@]2(C)[C@H](c3ccoc3)C[C@H]3O[C@]132 (stereo partly drawn) [Amotsangin A] | dose-dependently reduced; also recorded: reduces | no inhibitory effect | dose-dependently reduced; also recorded: inhibits | no inhibitory effect | could not be changed | no significant cytotoxicity | 4.28 | can suppress | no inhibitory effect | 14.8 | – | – | – | – | – | – | – | – | – | –
C=C1[C@@H]([C@@]2(C)C=CC(=O)OC(C)(C)[C@@H]2CC(=O)OC)[C@@H](OC(C)=O)[C@H](OC(=O)C(C)C)[C@@]2(C)[C@H](c3ccoc3)C[C@H]3O[C@]132 [Amotsangin B] | reduces | no effect; also recorded: not effect | dose-dependently reduced; also recorded: inhibits | can inhibit | 2.02% | no significant cytotoxicity | 1.08 | can suppress | can inhibit | 4.11 | – | – | – | – | – | – | – | – | – | –
C=C1[C@@H]([C@@]2(C)C=CC(=O)OC(C)(C)[C@@H]2CC(=O)OC)[C@@H](OC(C)=O)[C@H](OC(=O)C(O)C(C)CC)[C@@]2(C)[C@H](c3ccoc3)C[C@H]3O[C@]132 (stereo partly drawn) [Amotsangin C] | – | – | – | – | – | no significant cytotoxicity | – | can suppress | – | – | reduced | inhibits | 8.49 | dose-dependently reduced; also recorded: reduces | inhibits; also recorded: can inhibit | 10.2% | 1.91 | inhibits | 8.7% | –
C=C1[C@@H]([C@@]2(C)C=CC(=O)OC(C)(C)[C@@H]2CC(=O)OC)[C@@H](OC(C)=O)[C@H](OC(=O)CC)[C@@]2(C)[C@H](c3ccoc3)C[C@H]3O[C@]132 [Amotsangin D] | reduces | no inhibitory effect | dose-dependently reduced; also recorded: reduces | no inhibitory effect; also recorded: slight inhibitory effect | 14.6% | no significant cytotoxicity | 1.59 | can suppress | could inhibit | 11.9 | – | – | – | – | – | – | – | – | – | 13.7
C[C@H]1O[C@@H](O[C@H]2[C@@H](O)C[C@H](O[C@H]3[C@@H](O)C[C@H](O[C@H]4CC[C@@]5(C)[C@H](CC[C@@H]6[C@@H]5C[C@@H](O)[C@]5(C)[C@@H](C7=CC(=O)OC7)CC[C@]65O)C4)O[C@@H]3C)O[C@@H]2C)C[C@H](O)[C@@H]1O [digoxin, reference compound] | – | – | – | – | – | – | – | – | – | – | – | – | – | – | – | 10.8% and 15.3% and 17.0% | 5.43 | – | 15.0% and 10.2% | –
